Non-standard residues stand in square brackets, D forms with d. No end group written: not given here.

The subject of one test is β-amyloid aggregates. As to the kind of experiment: Thioflavin S and Congo red staining of β-amyloid plaques in brain sections of Alzheimer's model animals. The class given is in vivo. Particulars: 5XFAD mice, cortex and hippocampus, 20 mg/kg IP, 25 weeks, vs model animals given PBS alone. An excerpt:
To determine whether the peptides according to one embodiment of the present invention could inhibit the accumulation of β-amyloid aggregates in the brain as a pathologic phenomenon of Alzheimer's disease, even under realistic in vivo conditions as shown by the results of Experiments 4 and 5 above, brain tissue sections obtained from experimental animals sacrificed after the peptide administration for 25 weeks were stained with thioflavin S and Congo red that have selective affinity for β-amyloid plaques.
Specifically, for thioflavin S staining, the brain of a dementia model mouse was harvested and freeze-dried in O.C.T compound (Sakura finetec, USA), and brain sections were obtained by coronal sectioning and mounted on glass slides coated with 0.1% poly-L-lysine. The obtained brain sections were washed in 70% ethanol for 1 min, then in 80% ethanol for 1 min again, and stained in 1% thiflavin S solution (MilliporeSigma, USA) for 15 min. […] Finally, the β-amyloid senile spots were observed through fluorescence microscopy.
Congo red staining to identify amyloid was performed as follows. […] The amyloid senile spots were observed under a fluorescence microscope, and the number of stained senile spots and amyloid per brain section was counted and quantified with a statistical program (Graph prism).

The test system of test [1] is P-Tau S214, P-Tau T205, unphosphorylated tau, p62, LC3, β-amyloid (APP). As to the kind of experiment: Western blot of aggregate-forming proteins in cerebral cortex and hippocampus of Alzheimer's model animals. The class given is in vivo. Particulars: 5XFAD mice, 20 mg/kg IP, 25 weeks. From the text:
Based on the results of Experimental example 7-2 above, the present inventors investigated the expression of pathogenic aggregate-forming proteins such as tau protein, p62, and LC3 in brain tissue other than β-amyloid by Western blot analysis.
Specifically, cortical and hippocampal tissues were obtained from experimental animals sacrificed after experiments, and the tissues were lysed and subjected to Western blot analysis in the same manner as Experimental example 3, using antibodies that specifically bind to phosphorylated tau S214 (P-Tau S214), phosphorylated tau T205 (P-Tau T205), unphosphorylated tau, p62, LC3, and β-amyloid (APP), respectively.
(In general: A western blot detects proteins with antibodies after separation by electrophoresis.)

Test [2] deals with amyotrophic lateral sclerosis model animal (G93A-SOD1). As to the kind of experiment: Rotarod test in ALS model animals. The class given is in vivo. Particulars: G93A-SOD1 mice, 40 mg/kg SC five days per week from age 112 to 200 days, 15 rpm, 300 seconds. The method, then: (§1) To determine whether the peptide according to one embodiment of the present invention has therapeutic effects on amyotrophic lateral sclerosis (ALS) in vivo, the present inventors administered the peptide according to one embodiment of the present invention (ZC311) to an amyotrophic lateral sclerosis model animal (G93A-SOD1) at 40 mg/kg by subcutaneous (SC) injection repeatedly five days per week (Monday through Friday) from the age of 112 days to 200 days.
The animals were then subjected to a rotarod test twice a week at intervals of up to 3-4 days to evaluate their motor function. The rotarod test was performed using a rotarod treadmill (Cat. No. DJ-345, Dae Jong, Seoul, Korea) to evaluate impaired coordination, the main symptom of basal ganglia lesion disease, by measuring the time for the subject animals (n=11, 8, and 10) to fall off the rod during three repetitions of 300 seconds at a constant speed of 15 rpm. 300 seconds was set to be a perfect score, and the highest score was used.

The nature of test [3]: Body weight change in ALS model animals. Particulars: G93A-SOD1 mice, 40 mg/kg SC five days per week from age 112 to 200 days. The class given is in vivo. Here is the method:
as §1
The present inventors measured changes in body weight over time during the behavioral analysis of Experimental example 8-1 above.

Test [4] relates to amyotrophic lateral sclerosis model animal (G93A-SOD1). The test is described as follows: Survival rate of ALS model animals. As to conditions: G93A-SOD1 mice, 40 mg/kg SC five days per week from age 112 days; untreated model 162 days. Type of test: in vivo. The method, then:
as §1
In contrast, ALS model mice treated with the peptide according to one embodiment of the present invention began to die at a similar time to the control group, but the time to death was delayed (50% survival 183 days).

Test [5] concerns H4 cell lines expressing GFP-tagged LC3 (GL-H4). As to the kind of experiment: Autophagic flow blocked by Bafilomycin A-1: LC3-GFP puncta by fluorescence microscopy. Type of test: cell-based. Particulars: 100 nM bafilomycin alone, GL-H4 cells. The method, then: FIGS. 1A and 1B are a series of fluorescence micrographs showing that autophagic flow blocked by Bafilomycin A-1 is restored by the peptides according to one embodiment of the present invention, wherein an H4 cell line (GL-H4) stably overexpressing GFP-LC3 protein was treated with various peptides according to one embodiment of the present invention at a concentration of 20 μM in combination with Bafilomycin, whose LC3-GFP spots were photographed after 12 hours. FIGS. 1C and 1D are graphs showing quantification of the fluorescence intensity of LC3-GFP spots 12 hours after the treatment of the GL-H4 cell line with the peptides according to one embodiment of the present invention in combination with bafilomycin at a concentration of 20 μM. […]
To investigate the effect of the peptides comprising the amino acid sequences designated as SEQ ID NOs: 1 to 15 on autophagic flow, the present inventors treated H4 cell lines expressing GFP-tagged LC3 (GL-H4) with MEM and then used the above peptides (20 μM) and the autophagy inhibitor Bafilomycin A-1, Baf A1, 100 nM) to inhibit autophagy. Later, the effect of the peptides according to one embodiment of the present invention was investigated by fluorescence microscopy analysis. […]

Test [6] relates to SOD1 protein aggregates (EGFP-SOD1 G93A). The test is described as follows: Western blot of SOD1 protein aggregates in transfected HEK293T cells treated with bafilomycin. The class given is cell-based. As to conditions: 100 nM bafilomycin alone vs control. The method, then:
FIG. 2A is the results of a western blot analysis of SOD1 protein expression levels of protein samples obtained 18 h after treatment of HEK293T cells transfected to express SOD1 with either 100 nM bafilomycin alone or in combination with 30 μM of some peptides according to one embodiment of the present invention, to investigate the degradation of SOD1 protein aggregates by treatment with some peptides (ZC303, ZC304, ZC309, ZC311) according to one embodiment of the present invention. FIG. 2B is a graph showing the results of quantification of the relative expression. In FIG. 2B, * indicates a significant difference from the treatment with bafilomycin alone (* p<0.05).
(§2) The present inventors conducted an Western blot analysis to investigate whether some of the peptides (ZC303, ZC304, ZC309, ZC311) comprising the amino acid sequences designated as SEQ ID NO: 1 to 15 could resolve SOD1 aggregates that formed after transient transfection of SOD1 protein into HEK293T cell lines. Specifically, the present inventors transiently transfected EGFP-SOD1 G93A DNA into the HEK293T cell line using Lipofectamine 2000. […] The obtained cell lysate was subjected to protein quantification using BCA protein assay kit (Pierce Biotechnology, USA). […]

The test system of test [7] is mutant tau protein aggregates (EGFP-Tau P301L). As to the kind of experiment: Western blot of mutant tau protein aggregates in transfected HEK293T cells treated with bafilomycin. Type of test: cell-based. As to conditions: 100 nM bafilomycin alone vs controls.
The subject of test [8] is α-synuclein protein aggregates (EGFP-a-synuclein A53T). The test is described as follows: Western blot of α-synuclein protein aggregates in transfected HEK293T cells treated with bafilomycin. The class given is cell-based. Particulars: 100 nM bafilomycin alone vs control. Here is the method:
FIG. 4A is the results of a western blot analysis of a-synuclein expression levels of protein samples obtained 18 h after treatment of HEK293T cells transfected to express a-synuclein protein with either 100 nM bafilomycin alone or in combination with 30 μM of some peptides according to one embodiment of the present invention, to investigate the degradation of a-synuclein protein aggregates by treatment with some peptides (ZC303, ZC304, ZC309, ZC311) according to one embodiment of the present invention.
as §2, with “2000. After transfection, the cell lines were incubated in a cell incubator at 37° C., 5% CO2 for 30 h and the culture medium was replaced with Minimum Essential Medium (MEM, Gibco, USA). After a 30 min pre-treatment with 100 nM bafilomycin, 30 μM of peptide was added and incubated for 18 h of post-treatment.” for “2000.”

For test [9], the system named is mutant huntingtin protein aggregates (GFP-mHttQ74). The test is described as follows: Western blot of mutant huntingtin protein aggregates in transfected HEK293T cells treated with bafilomycin. The class given is cell-based. Particulars: 100 nM bafilomycin alone vs control. Here is the method: FIG. 5 is the results of a Western blot analysis of mutant huntingtin protein expression levels of protein samples obtained 18 h after treatment of HEK293T cells transfected to express mutant huntingtin protein with either 100 nM bafilomycin alone or in combination with 30 μM of some peptides according to one embodiment of the present invention, to investigate the degradation of mutant huntingtin protein aggregates by treatment with some peptides (ZC303, ZC304, ZC309, ZC311) according to one embodiment of the present invention.
as §2, with “2000. After transfection, the cell lines were incubated in a cell incubator at 37° C., 5% CO2 for 30 h and the culture medium was replaced with Minimum Essential Medium (MEM, Gibco, USA). After a 30 min pre-treatment with 100 nM bafilomycin, 30 μM of peptide was added and incubated for 18 h of post-treatment.” for “2000.”

With “ZC311 ([dH]G[dV][dS]GHGQ[dH]G[dV][dH]G; not fully specified (residues 6, 8))”, the “accumulation of β-amyloid aggregates (plaques, thioflavin S and Congo red)” value with β-amyloid aggregates was “significantly inhibited”. In addition, in test [1], the “expression of aggregate-forming proteins in the cerebral cortex” value is listed as “significantly lower” and the “expression of aggregate-forming proteins in the hippocampus” value is “significantly lower”. The “development of ataxia (rotarod)” value in test [2] was “delayed”. The “progressive body weight loss over time” value in [3] is reported as “not altered”. In test [4], this molecule gave a 50% survival of 183 days.
With `CO/C1=C\C(C)=C\[C@@H](C)[C@@H](O)[C@@H](C)C/C(C)=C/C=C/[C@H](OC)[C@@H]([C@@H](C)[C@@H](O)[C@H](C)[C@@]2(O)C[C@@H](O)[C@H](C)[C@@H](C(C)C)O2)OC1=O` [bafilomycin, Bafilomycin A-1], the “number and size of LC3 spots” value in test [5] is given as “significantly increased”. Further, the SOD1 protein aggregates result in test [6] is “increased”. Moreover, in test [7], the “mutant tau protein aggregates” value was “increased”. For the same molecule, in test [8], the α-synuclein protein aggregates result is on record as “increased”. In addition, the “mutant huntingtin protein aggregates” value in test [9] is “increased”.

Source of the values: patent US20250326793A1, “Novel Peptide and Use Thereof” (Zincure Corp., priority 2022, published 2025).
